The source of these data is ChEMBL document CHEMBL5647694, “Novel orally bioavailable EZH1/2 dual inhibitors with greater antitumor efficacy than an EZH2 selective inhibitor” (Cancer Sci, 2017).

Active and inactive are the calls of the source. No cut-off for these calls is given here.

A short description of data set [1]: Toxicity in Crl:CD Sprague-Dawley rat assessed as potassium level in blood at 100 mg/kg, po administered daily for 14 days (reference value: 4.18+/-0.189 mEq/L). The class given is organism-based. Particulars: in vivo, 336 h, time 14 day.
Data set [2] can be described thus: Toxicity in Crl:CD Sprague-Dawley rat assessed as urea nitrogen level in blood at 100 mg/kg, po administered daily for 14 days (reference value: 16.7+/-2.39 mg/dL). It is filed as organism-based. Particulars: in vivo, 336 h, time 14 day.
The nature of data set [3]: Toxicity in Crl:CD Sprague-Dawley rat assessed as sodium level in blood at 100 mg/kg, po administered daily for 14 days (reference value: 141+/-0.82 mEq/L). The class given is organism-based. Particulars: in vivo, 336 h, time 14 day.
A short description of data set [4]: Toxicity in Crl:CD Sprague-Dawley rat assessed as inorganic phosphorus level in blood at 100 mg/kg, po administered daily for 14 days (reference value: 6.02+/-0.628 mg/dL). The class given is organism-based. Particulars: in vivo, 336 h, time 14 day.
Data set [5] is described as follows: Toxicity in Crl:CD Sprague-Dawley rat assessed as glucose level in blood at 100 mg/kg, po administered daily for 14 days (reference value: 193 +/-[…]). It is filed as organism-based. Particulars: in vivo, 336 h, time 14 day.
Data set [6] deals with Mus musculus. In words: In vivo inhibition of EZH1/2 in CB17/Icr-Prkdcscid/CrlCrlj mouse xenografted with human KARPAS-422 cells assessed as decrease in H3K27me3 level in tumor at 3.1 to 50 mg/kg, po BID for 14 days and measured 1 day after cessation of drug dosing. The class given is functional, organism-based. Particulars: dose 3.1-50 mg/kg, time 14.0 day. On the technique in general: A xenograft is tissue or cells of one species grown in another, often human tumour cells in immunodeficient mice.

Data set [7] can be described thus: Toxicity in Crl:CD Sprague-Dawley rat assessed as triglyceride level in blood at 100 mg/kg, po administered daily for 14 days (reference value: 132 +/-30 mg/dL). The class given is organism-based. Particulars: in vivo, 336 h, time 14 day.
Data set [8] deals with Tyrosine-protein kinase Tec (Homo sapiens) (UniProt P42680). In words: Inhibition of N-terminal GST-tagged human TEC catalytic domain (359 to 631 residues) expressed in baculovirus-infected Sf21 cells using Srctide as substrate at 1 uM in presence of ATP by Mobility shift assay.
Tyrosine-protein kinase Tec (Homo sapiens), sequence (P42680 whole entry, the tested form may be a part): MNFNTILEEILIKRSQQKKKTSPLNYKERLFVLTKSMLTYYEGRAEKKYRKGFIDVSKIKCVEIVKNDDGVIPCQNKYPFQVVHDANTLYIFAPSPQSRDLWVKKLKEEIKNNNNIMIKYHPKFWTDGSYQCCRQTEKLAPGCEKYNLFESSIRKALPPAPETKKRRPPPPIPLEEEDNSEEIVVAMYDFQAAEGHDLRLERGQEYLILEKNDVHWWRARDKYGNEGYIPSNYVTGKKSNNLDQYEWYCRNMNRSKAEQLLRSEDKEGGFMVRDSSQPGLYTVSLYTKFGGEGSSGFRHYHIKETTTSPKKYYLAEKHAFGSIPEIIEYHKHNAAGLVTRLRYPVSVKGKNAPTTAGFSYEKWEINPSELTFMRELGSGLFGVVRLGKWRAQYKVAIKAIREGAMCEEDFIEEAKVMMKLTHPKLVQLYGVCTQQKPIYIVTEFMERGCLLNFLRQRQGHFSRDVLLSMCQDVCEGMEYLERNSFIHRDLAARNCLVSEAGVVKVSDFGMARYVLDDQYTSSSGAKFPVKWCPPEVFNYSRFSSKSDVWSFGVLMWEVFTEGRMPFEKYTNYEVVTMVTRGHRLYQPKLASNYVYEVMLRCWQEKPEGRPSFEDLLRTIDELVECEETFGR
Data set [9] in a line: Antitumor activity against human CADO-ES1 cells assessed as cell growth inhibition treated for 10 to 15 days. The class given is functional. Particulars: time 10-15 day.
For data set [10], the system named is Granta-519. In words: Antitumor activity against human Granta-519 cells assessed as cell growth inhibition treated for 10 to 15 days. It is filed as functional. Particulars: time 10-15 day.
In data set [11] the test system is TALL-1. In words: Antitumor activity against human TALL-1 cells assessed as cell growth inhibition treated for 10 to 15 days. The class given is functional. Particulars: time 10-15 day.
Data set [12] relates to U-266. In words: Antitumor activity against human U266B1 cells assessed as cell growth inhibition treated for 10 to 15 days. The class given is functional. Particulars: time 10-15 day.
Data set [13] deals with Angiopoietin-1 receptor (Homo sapiens) (UniProt Q02763). In words: Inhibition of N-terminal GST-tagged human TIE2 cytoplasmic domain (771 to 1124 residues) expressed in baculovirus-infected Sf21 cells using Blk/Lyntide as substrate at 1 uM in presence of ATP by Mobility shift assay.
Angiopoietin-1 receptor (Homo sapiens), sequence (Q02763 whole entry, the tested form may be a part): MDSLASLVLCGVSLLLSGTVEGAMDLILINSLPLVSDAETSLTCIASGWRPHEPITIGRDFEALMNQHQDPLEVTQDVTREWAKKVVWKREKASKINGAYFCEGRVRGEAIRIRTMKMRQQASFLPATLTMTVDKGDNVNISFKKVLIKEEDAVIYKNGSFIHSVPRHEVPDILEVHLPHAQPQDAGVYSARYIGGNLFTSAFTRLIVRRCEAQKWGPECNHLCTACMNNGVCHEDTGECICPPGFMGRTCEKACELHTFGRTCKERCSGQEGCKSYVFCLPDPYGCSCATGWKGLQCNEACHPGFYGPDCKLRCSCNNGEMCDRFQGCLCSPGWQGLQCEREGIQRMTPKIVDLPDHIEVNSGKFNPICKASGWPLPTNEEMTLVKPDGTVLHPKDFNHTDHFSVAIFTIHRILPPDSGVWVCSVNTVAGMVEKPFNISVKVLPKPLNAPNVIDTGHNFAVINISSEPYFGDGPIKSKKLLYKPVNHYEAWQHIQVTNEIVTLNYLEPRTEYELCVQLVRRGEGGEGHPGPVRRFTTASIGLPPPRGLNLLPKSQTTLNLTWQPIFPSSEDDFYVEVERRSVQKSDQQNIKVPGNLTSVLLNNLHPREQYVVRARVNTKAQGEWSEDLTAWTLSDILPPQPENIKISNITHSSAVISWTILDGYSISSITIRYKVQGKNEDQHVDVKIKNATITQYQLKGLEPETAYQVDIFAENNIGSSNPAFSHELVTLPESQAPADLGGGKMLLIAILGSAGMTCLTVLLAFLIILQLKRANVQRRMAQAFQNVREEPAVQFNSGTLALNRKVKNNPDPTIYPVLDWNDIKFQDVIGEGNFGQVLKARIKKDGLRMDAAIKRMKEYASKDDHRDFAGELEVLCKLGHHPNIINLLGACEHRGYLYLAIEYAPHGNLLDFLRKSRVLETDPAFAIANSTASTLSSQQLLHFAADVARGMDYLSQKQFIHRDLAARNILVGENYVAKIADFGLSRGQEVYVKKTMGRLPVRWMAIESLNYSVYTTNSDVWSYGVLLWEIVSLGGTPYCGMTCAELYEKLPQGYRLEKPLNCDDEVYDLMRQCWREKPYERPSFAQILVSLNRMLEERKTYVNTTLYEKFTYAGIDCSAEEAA
Data set [14] relates to KATO III stomach cancer cell line. In words: Antitumor activity against human KATO III stomach cancer cell line assessed as cell growth inhibition treated for 10 to 15 days. The class given is functional. Particulars: time 10-15 day.
For data set [15], the system named is HCC1187. In words: Antitumor activity against human HCC1187 cells assessed as cell growth inhibition treated for 10 to 15 days. The class given is functional. Particulars: time 10-15 day.
For data set [16], the target named is Serine/threonine-protein kinase D2 (Homo sapiens) (UniProt Q9BZL6). In words: Inhibition of N-terminal GST-fused full length human PKD2 (1 to 878 residues) expressed in baculovirus expression system using GS peptide as substrate at 1 uM in presence of ATP by Mobility shift assay.
Serine/threonine-protein kinase D2 (Homo sapiens), sequence (Q9BZL6 whole entry, the tested form may be a part): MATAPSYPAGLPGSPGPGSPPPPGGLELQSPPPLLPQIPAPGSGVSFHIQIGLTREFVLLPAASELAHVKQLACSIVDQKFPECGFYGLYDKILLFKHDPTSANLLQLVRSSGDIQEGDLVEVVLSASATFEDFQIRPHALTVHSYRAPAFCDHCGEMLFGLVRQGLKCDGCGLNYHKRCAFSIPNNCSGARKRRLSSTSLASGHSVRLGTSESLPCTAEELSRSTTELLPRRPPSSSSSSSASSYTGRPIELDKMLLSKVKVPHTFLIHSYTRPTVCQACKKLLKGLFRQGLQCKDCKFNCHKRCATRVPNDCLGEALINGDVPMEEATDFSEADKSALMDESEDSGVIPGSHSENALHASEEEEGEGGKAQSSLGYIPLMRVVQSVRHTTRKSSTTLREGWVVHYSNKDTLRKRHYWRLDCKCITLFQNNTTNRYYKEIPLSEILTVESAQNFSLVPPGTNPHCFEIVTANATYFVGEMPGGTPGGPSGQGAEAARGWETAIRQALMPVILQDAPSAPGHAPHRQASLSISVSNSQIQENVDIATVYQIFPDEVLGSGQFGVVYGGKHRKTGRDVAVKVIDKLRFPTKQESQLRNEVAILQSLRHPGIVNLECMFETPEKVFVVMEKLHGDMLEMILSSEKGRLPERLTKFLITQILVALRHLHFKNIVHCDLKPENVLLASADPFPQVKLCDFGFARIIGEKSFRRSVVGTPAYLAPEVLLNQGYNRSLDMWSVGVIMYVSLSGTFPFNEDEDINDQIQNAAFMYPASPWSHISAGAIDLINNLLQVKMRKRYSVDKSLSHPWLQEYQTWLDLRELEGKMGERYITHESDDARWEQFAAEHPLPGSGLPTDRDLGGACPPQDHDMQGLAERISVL
In data set [17] the test system is LS180. In words: Antitumor activity against human LS180 cells assessed as cell growth inhibition treated for 10 to 15 days. Particulars: time 10-15 day. The class given is functional.
The target of data set [18] is Histone-lysine N-methyltransferase NSD3 (Homo sapiens, UniProt Q9BZ95). In words: Inhibition of human NSD3 using Nucleosomes and [3H]SAM as substrate incubated for 30 mins to 1 hr by HotSpot kinase assay.
Histone-lysine N-methyltransferase NSD3, sequence (Q9BZ95 whole entry): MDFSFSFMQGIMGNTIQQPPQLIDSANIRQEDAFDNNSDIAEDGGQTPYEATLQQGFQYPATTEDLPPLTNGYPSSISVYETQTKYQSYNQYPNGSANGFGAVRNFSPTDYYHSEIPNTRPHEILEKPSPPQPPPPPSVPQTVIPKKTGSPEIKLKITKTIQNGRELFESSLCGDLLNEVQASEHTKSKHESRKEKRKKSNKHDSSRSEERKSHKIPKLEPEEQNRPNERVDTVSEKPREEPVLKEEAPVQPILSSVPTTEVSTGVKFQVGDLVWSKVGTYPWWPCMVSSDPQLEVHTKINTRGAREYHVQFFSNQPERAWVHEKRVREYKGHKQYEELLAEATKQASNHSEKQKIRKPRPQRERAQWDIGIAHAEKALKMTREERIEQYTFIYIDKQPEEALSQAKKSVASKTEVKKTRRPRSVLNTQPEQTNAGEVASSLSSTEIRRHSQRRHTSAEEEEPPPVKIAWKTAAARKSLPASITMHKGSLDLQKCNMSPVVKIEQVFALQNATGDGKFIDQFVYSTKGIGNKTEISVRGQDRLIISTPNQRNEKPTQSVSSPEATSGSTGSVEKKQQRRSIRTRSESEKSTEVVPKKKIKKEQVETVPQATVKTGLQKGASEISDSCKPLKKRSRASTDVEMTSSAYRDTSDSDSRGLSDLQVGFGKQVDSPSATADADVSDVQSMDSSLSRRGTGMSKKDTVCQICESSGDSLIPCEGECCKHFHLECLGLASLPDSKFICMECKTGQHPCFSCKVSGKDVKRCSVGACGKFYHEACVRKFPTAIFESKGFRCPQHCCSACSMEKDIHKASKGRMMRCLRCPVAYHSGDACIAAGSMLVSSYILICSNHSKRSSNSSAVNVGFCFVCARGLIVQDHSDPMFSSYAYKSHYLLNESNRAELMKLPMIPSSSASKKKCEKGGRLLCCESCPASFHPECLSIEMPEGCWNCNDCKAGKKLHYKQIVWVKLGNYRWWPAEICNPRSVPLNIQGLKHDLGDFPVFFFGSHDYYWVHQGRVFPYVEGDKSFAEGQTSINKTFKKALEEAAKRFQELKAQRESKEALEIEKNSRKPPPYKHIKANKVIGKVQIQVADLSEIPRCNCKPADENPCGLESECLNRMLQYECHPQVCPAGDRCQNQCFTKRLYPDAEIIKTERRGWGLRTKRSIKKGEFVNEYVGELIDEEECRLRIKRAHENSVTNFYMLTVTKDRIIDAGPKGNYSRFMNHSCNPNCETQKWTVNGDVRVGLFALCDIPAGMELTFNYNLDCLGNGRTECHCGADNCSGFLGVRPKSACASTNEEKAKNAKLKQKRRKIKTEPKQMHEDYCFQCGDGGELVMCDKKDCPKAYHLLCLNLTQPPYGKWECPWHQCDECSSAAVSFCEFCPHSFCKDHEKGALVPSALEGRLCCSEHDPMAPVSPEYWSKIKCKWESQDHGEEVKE
A short description of data set [19]: Antitumor activity against human HUG1N cells assessed as cell growth inhibition treated for 10 to 15 days. Particulars: time 10-15 day. It is filed as functional.
Data set [20] is described as follows: Antitumor activity against human COV504 cells assessed as cell growth inhibition treated for 10 to 15 days. It is filed as functional. Particulars: time 10-15 day.
In data set [21] the test system is HuT78. In words: Antitumor activity against human HuT78 cells assessed as cell growth inhibition treated for 10 to 15 days. Particulars: time 10-15 day. The class given is functional.
The test system of data set [22] is Pfeiffer. In words: Antitumor activity against human Pfeiffer cells assessed as cell growth inhibition treated for 10 to 15 days. It is filed as functional. Particulars: time 10-15 day.
Data set [23] relates to SNU1. In words: Antitumor activity against human SNU1 cells assessed as cell growth inhibition treated for 10 to 15 days. It is filed as functional. Particulars: time 10-15 day.
A short description of data set [24]: Antitumor activity against human COV644 cells assessed as cell growth inhibition treated for 10 to 15 days. It is filed as functional. Particulars: time 10-15 day.
Data set [25] can be described thus: Antitumor activity against human Kasumi-3 cells assessed as cell growth inhibition treated for 10 to 15 days. It is filed as functional. Particulars: time 10-15 day.
The test system of data set [26] is Raji. In words: Antitumor activity against human Raji cells assessed as cell growth inhibition treated for 10 to 15 days. It is filed as functional. Particulars: time 10-15 day.
Data set [27] concerns the target MAP kinase-activated protein kinase 3 (Homo sapiens) (UniProt Q16644). In words: Inhibition of N-terminal GST-fused full length human MAPKAPK3 (1 to 382 residues) expressed in baculovirus expression system using GS peptide as substrate at 1 uM in presence of ATP by Mobility shift assay.
For data set [28], the target named is MAP kinase-activated protein kinase 2 (Homo sapiens) (UniProt P49137). In words: Inhibition of N-terminal GST-fused full length human MAPKAPK2 (1 to 400 residues) expressed in baculovirus expression system using GS peptide as substrate at 1 uM in presence of ATP by Mobility shift assay.
MAP kinase-activated protein kinase 2 (Homo sapiens), sequence (P49137 whole entry, looked up, the tested form may be a part): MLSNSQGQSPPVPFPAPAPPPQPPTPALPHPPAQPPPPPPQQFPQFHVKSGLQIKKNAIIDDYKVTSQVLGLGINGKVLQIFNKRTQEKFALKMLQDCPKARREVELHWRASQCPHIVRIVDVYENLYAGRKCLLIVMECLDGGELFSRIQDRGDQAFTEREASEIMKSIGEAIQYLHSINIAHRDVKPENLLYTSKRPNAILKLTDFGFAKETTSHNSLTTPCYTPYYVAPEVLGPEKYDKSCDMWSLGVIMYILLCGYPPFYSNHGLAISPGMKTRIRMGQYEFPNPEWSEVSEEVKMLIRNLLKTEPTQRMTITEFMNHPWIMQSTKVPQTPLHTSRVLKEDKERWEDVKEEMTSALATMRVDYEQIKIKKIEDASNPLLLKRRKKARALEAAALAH
Data set [29] concerns SK-OV-3. In words: Antitumor activity against human SK-OV-3 cells assessed as cell growth inhibition treated for 10 to 15 days. Particulars: time 10-15 day. The class given is functional.
In data set [30] the test system is MDA-MB-134-VI. In words: Antitumor activity against human MDA-MB-134-VI cells assessed as cell growth inhibition treated for 10 to 15 days. The class given is functional. Particulars: time 10-15 day.
The subject of data set [31] is VCaP. In words: Antitumor activity against human VCaP cells assessed as cell growth inhibition treated for 10 to 15 days. The class given is functional. Particulars: time 10-15 day.
Data set [32] can be described thus: Antitumor activity against human CMK-86 cells assessed as cell growth inhibition treated for 10 to 15 days. It is filed as functional. Particulars: time 10-15 day.
Data set [33] deals with KG-1. In words: Antitumor activity against human KG-1 cells assessed as cell growth inhibition treated for 10 to 15 days. The class given is functional. Particulars: time 10-15 day.
Data set [34] relates to NB-4. In words: Antitumor activity against human NB-4 cells assessed as cell growth inhibition treated for 10 to 15 days. It is filed as functional. Particulars: time 10-15 day.
For data set [35], the system named is SNU-449. In words: Antitumor activity against human SNU-449 cells assessed as cell growth inhibition treated for 10 to 15 days. It is filed as functional. Particulars: time 10-15 day.
The subject of data set [36] is HCC2935. In words: Antitumor activity against human HCC2935 cells assessed as cell growth inhibition treated for 10 to 15 days. It is filed as functional. Particulars: time 10-15 day.
Data set [37] relates to T47D. In words: Antitumor activity against human T47D cells assessed as cell growth inhibition treated for 10 to 15 days. The class given is functional. Particulars: time 10-15 day.
For data set [38], the system named is UACC-893. In words: Antitumor activity against human UACC-893 cells assessed as cell growth inhibition treated for 10 to 15 days. It is filed as functional. Particulars: time 10-15 day.
The subject of data set [39] is RPMI-6666. In words: Antitumor activity against human RPMI-6666 cells assessed as cell growth inhibition treated for 10 to 15 days. The class given is functional. Particulars: time 10-15 day.
Data set [40] relates to Daudi. In words: Antitumor activity against human Daudi cells assessed as cell growth inhibition treated for 10 to 15 days. The class given is functional. Particulars: time 10-15 day.

MAP kinase-activated protein kinase 3 (Homo sapiens), sequence (Q16644 whole entry, looked up, the tested form may be a part): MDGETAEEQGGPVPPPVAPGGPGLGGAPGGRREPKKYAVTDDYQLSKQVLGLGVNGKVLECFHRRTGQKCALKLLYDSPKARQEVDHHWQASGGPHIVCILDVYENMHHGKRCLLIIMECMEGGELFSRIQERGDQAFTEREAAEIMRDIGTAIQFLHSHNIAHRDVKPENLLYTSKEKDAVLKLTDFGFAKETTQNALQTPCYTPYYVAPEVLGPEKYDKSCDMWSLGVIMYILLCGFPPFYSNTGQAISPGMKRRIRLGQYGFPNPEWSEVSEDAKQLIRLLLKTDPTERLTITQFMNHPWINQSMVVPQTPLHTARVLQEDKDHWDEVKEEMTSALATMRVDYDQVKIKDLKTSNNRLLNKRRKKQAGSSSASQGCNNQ

As for `Cc1cc(C)c(CNC(=O)c2cc(Br)c3c(c2C)O[C@@](C)([C@H]2CC[C@H](N(C)C)CC2)O3)c(=O)[nH]1`, the Activity came out at 4.2 mEq/L in data set [1]; 16.8 mg/dL in data set [2]; 142 mEq/L in [3]; 5.97 mg/dL in [4]; 216 mg/dL in data set [5]; 90 mg/dL in data set [7]. Besides, the inhibition entry in data set [6] is “Active”. The inhibition in data set [8] is -10%.
With `Cc1cc(C)c(CNC(=O)c2cc(Cl)c3c(c2C)O[C@@](C)([C@H]2CC[C@H](N(C)C)CC2)O3)c(=O)[nH]1` [VALEMETOSTAT], the GI50 in data set [9] was 952 nM; in data set [10] it was > 1000 nM; in [11] it was > 1000 nM; in data set [12] it was 6.88 nM; in data set [14], 18.2 nM; in [15], > 1000 nM. For the same compound, the concentration for 50% growth inhibition (GI50) is 95.5 nM in [17]; 142 nM in data set [19]; 317 nM in data set [20]; > 1000 nM in [21]; 0.107 nM in data set [22]; > 1000 nM in data set [23]. In addition, the 50% growth inhibitory concentration (GI50) was > 1000 nM in [24]; > 1000 nM in [25]; 11.2 nM in data set [26]; > 1000 nM in [29]; > 1000 nM in data set [30]; 50.7 nM in [31]. In addition, the GI50 in data set [32] is 444 nM; in data set [33] it was 700 nM; in data set [34], > 1000 nM; in [35], > 1000 nM; in data set [36] it was > 1000 nM; in data set [37], > 1000 nM. The GI50 was > 1000 nM in [38], 68.4 nM in data set [39] and > 1000 nM in [40]. The inhibition in data set [13] was -7.6%; in [16], -4.7%; in [27] it was -9.3%; in data set [28] it was 6.7%. Moreover, the IC50 in data set [18] was found to be 100 µM.

For orientation: inhibition means the relative decrease from the control value, in per cent. As a reminder, the GI50 is the concentration at which growth is held to half of that of the control. By IC50 is commonly meant the point on the concentration scale where inhibition reaches its midpoint.
